# Measured values from patent EP2177209A1, “Intravenous solutions and uses” (priority 2008, dated 2010).
# Assays:
# [1] = system: methicillin-resistant Staphylococcus aureus (MRSA)
# [2] = system: methicillin-susceptible Staphylococcus aureus (MSSA)
# [3] = system: methicillin-resistant Staphylococcus epidermidis (MRSE)
# [4] = system: methicillin-susceptible Staphylococcus epidermidis (MSSE)
# [5] = system: Streptococcus constellatus
# Listeria monocytogenes = conditions: 20 library strains
# Escherichia coli = conditions: 50 strains
# Pseudomonas aeruginosa = conditions: 50 strains
# Haemophilus influenzae = conditions: 70 strains
# Moraxella catarrhalis = conditions: 50 strains
# Neisseria gonorrhoeae = conditions: 20 library strains
# Neisseria meningitidis = conditions: 20 library strains
# Helicobacter pylori = conditions: 5 library strains
# Bacteroides fragilis = conditions: 20 library strains
# Clostridium difficile = conditions: 10 library strains
# Clostridium perfringens = conditions: 10 library strains
smiles,measurement,setting,value
"CCCCCCCCCC(=O)N[C@@H](Cc1c[nH]c2ccccc12)C(=O)N[C@H](CC(N)=O)C(=O)N[C@@H](CC(=O)O)C(=O)N[C@@H]1C(=O)NCC(=O)N[C@@H](CCCN)C(=O)N[C@@H](CC(=O)O)C(=O)N[C@H](C)C(=O)N[C@@H](CC(=O)O)C(=O)NCC(=O)N[C@H](CO)C(=O)N[C@@H]([C@H](C)CC(=O)O)C(=O)N[C@@H](CC(=O)c2ccccc2N)C(=O)O[C@@H]1C [Daptomycin, daptomycin]",MIC 50%,[1],0.25 mg/L
same,MIC 90%,[1],0.5 mg/L
same,MIC MAX,[1],1 mg/L
same,MIC MIN,[1],0.12 mg/L
same,MIC 50%,[2],0.25 mg/L
same,MIC 90%,[2],0.25 mg/L
same,MIC MAX,[2],0.5 mg/L
same,MIC MIN,[2],0.06 mg/L
same,MIC 50%,[3],0.25 mg/L
same,MIC 90%,[3],0.5 mg/L
same,MIC MAX,[3],0.5 mg/L
same,MIC MIN,[3],0.06 mg/L
same,MIC 50%,[4],0.25 mg/L
same,MIC 90%,[4],0.5 mg/L
same,MIC MAX,[4],1 mg/L
same,MIC MIN,[4],0.06 mg/L
same,MIC 50%,Group A Streptococci,≤0.03 mg/L
same,MIC 90,Group A Streptococci,0.06 mg/L
same,MIC MAX,Group A Streptococci,0.12 mg/L
same,MIC MIN,Group A Streptococci,≤0.03 mg/L
same,MIC 50%,Group B Streptococci,0.5 mg/L
same,MIC 90%,Group B Streptococci,1 mg/L
same,MIC MAX,Group B Streptococci,1 mg/L
same,MIC MIN,Group B Streptococci,0.12 mg/L
same,MIC 50%,Group C Streptococci,0.12 mg/L
same,MIC 90%,Group C Streptococci,0.25 mg/L
same,MIC MAX,Group C Streptococci,0.5 mg/L
same,MIC MIN,Group C Streptococci,≤0.03 mg/L
same,MIC 50%,[5],0.5 mg/L
same,MIC 90%,[5],0.5 mg/L
same,MIC MAX,[5],0.5 mg/L
same,MIC MIN,[5],0.12 mg/L
same,MIC 50%,Streptococcus bovis,0.06 mg/L
same,MIC 90%,Streptococcus bovis,0.12 mg/L
same,MIC MAX,Streptococcus bovis,0.12 mg/L
same,MIC MIN,Streptococcus bovis,≤0.03 mg/L
same,MIC 50%,Streptococcus mitis,0.5 mg/L
same,MIC 90%,Streptococcus mitis,1 mg/L
same,MIC MAX,Streptococcus mitis,1 mg/L
same,MIC MIN,Streptococcus mitis,0.12 mg/L
same,MIC 50%,Streptococcus sanguis,0.25 mg/L
same,MIC 90%,Streptococcus sanguis,0.5 mg/L
same,MIC 90%,Streptococcus oralis,2 mg/L
same,MIC MAX,Streptococcus oralis,2 mg/L
same,MIC MIN,Streptococcus oralis,0.25 mg/L
same,MIC 50%,Streptococcus pneumoniae,0.12 mg/L
same,MIC 90%,Streptococcus pneumoniae,0.5 mg/L
same,MIC MAX,Streptococcus pneumoniae,0.5 mg/L
same,MIC MIN,Streptococcus pneumoniae,≤0.03 mg/L
same,MIC 50%,Listeria monocytogenes,1 mg/L
same,MIC 90%,Listeria monocytogenes,2 mg/L
same,MIC MAX,Listeria monocytogenes,≥128 mg/L
same,MIC MIN,Listeria monocytogenes,0.015 mg/L
same,MIC 50%,Escherichia coli,≥128 mg/L
same,MIC 90%,Escherichia coli,≥128 mg/L
same,MIC MAX,Escherichia coli,≥128 mg/L
same,MIC MIN,Escherichia coli,≥128 mg/L
same,MIC 50%,Pseudomonas aeruginosa,≥128 mg/L
same,MIC 90%,Pseudomonas aeruginosa,≥128 mg/L
same,MIC MAX,Pseudomonas aeruginosa,≥128 mg/L
same,MIC MIN,Pseudomonas aeruginosa,≥128 mg/L
same,MIC 50%,Haemophilus influenzae,≥128 mg/L
same,MIC 90%,Haemophilus influenzae,≥128 mg/L
same,MIC MAX,Haemophilus influenzae,≥128 mg/L
same,MIC MIN,Haemophilus influenzae,≥128 mg/L
same,MIC 50%,Moraxella catarrhalis,8 mg/L
same,MIC 90%,Moraxella catarrhalis,16 mg/L
same,MIC MAX,Moraxella catarrhalis,≥128 mg/L
same,MIC MIN,Moraxella catarrhalis,2 mg/L
same,MIC 50%,Neisseria gonorrhoeae,≥128 mg/L
same,MIC 90%,Neisseria gonorrhoeae,≥128 mg/L
same,MIC MIN,Neisseria gonorrhoeae,64 mg/L
same,MIC 50%,Neisseria meningitidis,64 mg/L
same,MIC MAX,Neisseria meningitidis,≥128 mg/L
same,MIC MIN,Neisseria meningitidis,8 mg/L
same,MIC 50%,Helicobacter pylori,≥128 mg/L
same,MIC 90%,Helicobacter pylori,≥128 mg/L
same,MIC MAX,Helicobacter pylori,≥128 mg/L
same,MIC MIN,Helicobacter pylori,≥128 mg/L
same,MIC 50%,Bacteroides fragilis,≥128 mg/L
same,MIC 90%,Bacteroides fragilis,≥128 mg/L
same,MIC MAX,Bacteroides fragilis,≥128 mg/L
same,MIC MIN,Bacteroides fragilis,≥128 mg/L
same,MIC 50%,Clostridium difficile,0.25 mg/L
same,MIC 90%,Clostridium difficile,2 mg/L
same,MIC MAX,Clostridium difficile,2 mg/L
same,MIC MIN,Clostridium difficile,0.12 mg/L
same,MIC 50%,Clostridium perfringens,1 mg/L
